Assay results as given in PubChem BioAssay AID330 (DTP/NCI, 2004).
Toxic doses and inconclusive results are not listed.

System: P388 leukemia ip, CD2F1 mice, survival T/C
Test: NCI In Vivo Anticancer Drug Screen. Data for tumor model P388 Leukemia (intraperitoneal) in CD2F1 (CDF1) mice
Details: endpoint: median survival time, higher = longer survival
Procedure, shortened: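 Mice carrying the transplanted tumor received test compound or vehicle. Survival was recorded in each group, and the value is the treated-group measurement divided by that of the vehicle-treated control group.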

[1] = dose: 50.0 mg/kg/injection, schedule: Q01DX005 (ip), vehicle: saline with Tween-80
[2] = dose: 100.0 mg/kg/injection, schedule: Q01DX005 (ip), vehicle: saline with Tween-80
[3] = dose: 200.0 mg/kg/injection, schedule: Q01DX005 (ip), vehicle: saline with Tween-80

Which results are given for CNC(=O)c1ccc[n+](C2OC(COC(C)=O)C(OC(C)=O)C2OC(C)=O)c1 (stereo not given)?
T/C [1]: 100 % of control; T/C [2]: 97 % of control; T/C [3]: 91 % of control

CCN1C(=O)c2ccccc2C1=O was tested. Which T/C (dose: 50.0 mg/kg/injection, schedule: Q01DX009 (ip), vehicle: saline) did it give?
Its T/C is 101 % of control.

And the T/C (dose: 100.0 mg/kg/injection, schedule: Q01DX009 (ip), vehicle: saline)?
The T/C was 90 % of control.

And the T/C (dose: 200.0 mg/kg/injection, schedule: Q01DX009 (ip), vehicle: saline)?
Its T/C is 110 % of control.

How did the T/C (dose: 2.0 mg/kg/injection, schedule: Q01DX009 (ip), vehicle: distilled water + Tween-80) turn out when Cn1cnc([N+](=O)[O-])c1[Se]c1nc(N)nc2c1ncn2C1OC(CO)C(O)C1O (stereo not given) was run?
The T/C was 116 % of control.

And the T/C (dose: 4.0 mg/kg/injection, schedule: Q01DX009 (ip), vehicle: distilled water + Tween-80)?
The T/C was 121 % of control.

And the T/C (dose: 32.0 mg/kg/injection, schedule: Q01DX009 (ip), vehicle: distilled water + Tween-80)?
Its T/C is 160 % of control.

What about the T/C (dose: 32.0 mg/kg/injection, schedule: Q01DX009 (ip), vehicle: water) of the same compound?
The T/C was 175 % of control.

And the T/C (dose: 64.0 mg/kg/injection, schedule: Q01DX009 (ip), vehicle: water)?
Its T/C is 100 % of control.

Which results are given for Cc1nc(Nc2ccccc2Cl)c2ccsc2n1?
T/C (dose: 50.0 mg/kg/injection, schedule: Q01DX005 (ip), vehicle: Klucel (hydroxypropylcellulose) (HPC)): 100 % of control; T/C (dose: 100.0 mg/kg/injection, schedule: Q01DX005 (ip), vehicle: Klucel (hydroxypropylcellulose) (HPC)): 93 % of control; T/C (dose: 200.0 mg/kg/injection, schedule: Q01DX005 (ip), vehicle: Klucel (hydroxypropylcellulose) (HPC)): 87 % of control

Which T/C [1] does the source give for CCCCCCCCCCCCCCCCCC(=O)NC1=C(Cl)C(=O)c2ccccc2C1=O here?
The T/C was 94 % of control.

And the T/C [2]?
The T/C was 94 % of control.

What about the T/C [3] of the same compound?
The T/C was 91 % of control.

For Nc1ccccc1C(=O)NCCc1c[nH]c2ccccc12, which T/C [1] is on record?
Its T/C is 99 % of control.

What about the T/C [2] of the same compound?
The T/C was 107 % of control.

What about the T/C [3] of the same compound?
Its T/C is 107 % of control.
